≈ marks a conversion by molar mass, not a printed value. Like-named read-outs stand apart in the source and are kept apart here.

The values that follow come from patent publication US9890185B2, “Urea derivatives useful as kinase inhibitors” (Respivert Limited, priority 2013, dated 2018).

One series deals with PBMCs. Description: LPS-induced IL-8 release in PBMC cells (assay b). It counts as cell-based, human. The note with it: Homo sapiens, PBMC; LPS-stimulated PBMCs; read-out: IC50 Values for Inhibition of Cytokine Release, PBMCs IL-8. The method, boiled down:
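Cytokines (TNFα, IL-8) in supernatants were quantified by sandwich ELISA after a 24 h challenge with 1 ng/mL E. coli LPS at 37° C, 5% CO2. Healthy-donor PBMCs had been exposed to compound for 2 h beforehand. IC50 values were fitted from the concentration-response curves.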

Series [1] can be described thus: Solubility in fasted-state simulated colonic fluid (FaSSCoF). It counts as physicochemical. The note with it: thermodynamic from solid, pH 6.5, 25° C.; for solubility thermodynamic at 24 h: 25 °C, pH 6.5, fassgf or other biorelevant. As to the method: The solubilities of compounds of the invention in FaSSCoF at pH 6.5 are determined using a modification of a previously-reported procedure (Vertzoni, M., et al. Pharm. Res. 2010, 27, 2187-2196). In place of the bile salt extract employed in the original procedure (which extract is no longer available), the modified procedure uses a mixture of sodium taurochlorate (0.15 g), glycocholic acid (0.15 g), ursodeoxycholic acid (0.05 g), cholic acid (0.05 g), and glycodeoxycholic acid (0.05 g). These five bile acids are ground together with a mortar and pestle to produce a fine white powder that is incorporated into the FaSSCoF, as outlined below.
Tris(hydroxymethyl)aminomethane (Tris; 0.275 g) and maleic acid (0.44 g) are dissolved in water (35 mL) to give a solution whose pH is adjusted to 6.5 by treatment with 0.5M NaOH (ca. 12 mL). The solution is then made up to 50 mL with water. A portion of this Tris/maleate buffer solution (ca. 25 mL) is added to a 0.5 L round-bottomed flask, before being treated with 0.00565 g of the bile acid mixture described above. Solutions of phosphatidylcholine (0.0111 g) in DCM (0.15 mL) and palmitic acid (0.0013 g) in DCM (0.15 mL) are added, then the organic solvent is evaporated off under reduced pressure at 40° C. until a clear solution, with no perceptible DCM odour, is achieved. The volume of the evaporated solution is adjusted to 50 mL by addition of the remainder of Tris/maleate buffer, then BSA (0.115 g) is added, before being dissolved by gentle agitation.
Test compounds are suspended in the pH 6.5 FaSSCoF medium to give a maximum final concentration of ca. 6 mg/mL. The suspensions are equilibrated at 25° C. for 24 h, before being filtered through a glass fibre C filter. The filtrates are then diluted as appropriate for injection and quantification by HPLC with reference to a standard. Different volumes of the standard, diluted and undiluted sample solutions are injected and the solubilities are calculated using the peak areas determined by integration of the peak found at the same retention time as the principal peak in the standard injection.

The test system of series [2] is endotoxin (LPS)-induced uveitis. Description: Endotoxin-induced uveitis in rats (in vivo assay vi). Details: species or system Lewis rats. The note with it: eyes of LPS-stimulated rats, topical, 1 mg/mL. As to the method: Male, Lewis rats (6-8 weeks old, Charles River UK Limited) are housed in cages of 3 at 19-21° C. with a 12 h light/dark cycle (07:00/19:00) and fed a standard diet of rodent chow and water ad libitum. […] Untreated rats are injected with PBS. […] Before administration, the solution or suspension to be administered is agitated for 5 minutes to ensure a uniform suspension. 6 hours after LPS dosing, animals are euthanized by overdose with pentobarbitone (i.v.). Following euthanasia, the right eye of each animal is enucleated and dissected into front (anterior) and back (posterior) sections around the lens. Each section is weighed and homogenised in 500 μL of sterile phosphate buffered saline followed by 20 minutes centrifugation at 12000 rpm at 4° C. The resulting supernatant is divided into 3 aliquots and stored at −80° C. until subsequent cytokine analysis by R&D DuoSet ELISA.

For the compound `COc1cc(Nc2cc(Oc3ccc(NC(=O)Nc4cc(C(C)(C)C)cc([S+](C)[O-])c4OC)c4ccccc34)ccn2)cc(C(=O)NCCN2CCN(C)CC2)c1` (centres unmarked) [Example 84, 3-((4-((4-(3-(5-(tert-Butyl)-2-methoxy-3-(methylsulfinyl)phenyl)ureido)naphthalen-1-yl)oxy)pyridin-2-yl)amino)-5-methoxy-N-(2-(4-methylpiperazin-1-yl)ethyl)benzamide], the IC50 in the series on PBMCs came out at 1.8 nM. Besides, the solubility thermodynamic at 24 h is 15 µg/mL (≈ 18.9 µM) in series [1] (Run 1, read-out: pH 6.5 FaSSCoF Solubility Run 1) and 16 µg/mL (≈ 20.2 µM) in series [1] (Run 2, read-out: pH 6.5 FaSSCoF Solubility Run 2). The solubility at 24 h in series [1] (fassgf or other biorelevant, read-out: Solubility in the FaSSCoF medium) was over 10 µg/mL.
In series [2], `C[C@@H]1C[C@H]2[C@@H]3CCC4=CC(=O)C=C[C@]4(C)[C@@]3(F)[C@@H](O)C[C@]2(C)[C@@]1(O)C(=O)CO` [Dexamethasone, dexamethasone, reference compound] yielded a Cell counts of 30.1 ± 6.4.

The term IC50 denotes the concentration at which inhibition is half-maximal. By solubility is commonly meant the dissolved amount per volume that the medium holds.
